What all share (assay type): functional, cell membranes, Membrane vesicle
Data set [1] addresses T1, ATP-binding cassette sub-family C member 2 (Rattus norvegicus, UniProt Q63120). The data set is described as follows: TP_TRANSPORTER: inhibition of E217betaG uptake (E217betaG: 0.055 uM) in membrane vesicles from Mrp2-expressing Sf9 cells.
The target of data set [2] is T1, ATP-binding cassette sub-family C member 2. The data set is described as follows: TP_TRANSPORTER: inhibition of DNP-SG uptake (DNP-SG: 0.05 uM) in membrane vesicles from Mrp2-expressing Sf9 cells.
Substrate in data set [3]: C[C@]12CC[C@@H]3c4ccc(O)cc4CC[C@H]3[C@@H]1CC[C@@H]2O[C@@H]1O[C@H](C(=O)O)[C@@H](O)[C@H](O)[C@H]1O
The experiment in a line: TP_TRANSPORTER: uptake in membrane vesicles from Mrp2-expressing Sf9 cells.

The term IC50 denotes the midpoint of a concentration-inhibition curve. Read a low IC50 as inhibition by little substance. In data set [1], `N[C@@H](CCC(=O)N[C@H](CSc1ccc([N+](=O)[O-])cc1[N+](=O)[O-])C(=O)NCC(=O)O)C(=O)O` yielded an IC50 of 19.3 µM.

The molecule `C[C@]12CC[C@@H]3c4ccc(O)cc4CC[C@H]3[C@@H]1CC[C@@H]2O[C@@H]1O[C@H](C(=O)O)[C@@H](O)[C@H](O)[C@H]1O` [ESTRADIOL 17B GLUCURONIDE] had an IC50 in data set [2] of 13.3 µM.

Molecule `CCCCC/C=C\C\C=C/C=C/C=C/[C@@H](SC[C@@H](NC(=O)CC[C@H](N)C(=O)O)C(=O)NCC(=O)O)[C@@H](O)CCCC(=O)O` [LEUKOTRIEN C4] showed a 50% inhibitory concentration (IC50) in data set [1] of 0.65 µM.

Take `CCCCC/C=C\C\C=C/C=C/C=C/[C@@H](SC[C@H](N)C(=O)O)[C@@H](O)CCCC(=O)O` [LEUKOTRIEN E4]: the concentration for half-maximal inhibition (IC50) in data set [1] came to 9.83 µM.

Take `CCCCC/C=C\C\C=C/C=C/C=C/[C@@H](SC[C@H](NC(=O)CC[C@@H](N)C(=O)O)C(=O)O)[C@@H](O)CCCC(=O)O` [LEUKOTRIEN F4]: the 50% inhibitory concentration (IC50) in data set [1] was 10 µM.

In data set [1], `CCCCC/C=C\C\C=C/C=C/C=C/[C@@H](SC[C@H](N)C(=O)NCC(=O)O)[C@@H](O)CCCC(=O)O` [LEUKOTRIENE D4] yielded a half-maximal inhibitory concentration (IC50) of 5.48 µM.

On to `CN(C)C(=O)CCSC(SCCC(=O)O)c1cccc(/C=C/c2ccc3ccc(Cl)cc3n2)c1` (stereo not drawn) [MK-571], for which the IC50 in data set [1] amounted to 2.62 µM.

B1: ATP-binding cassette sub-family C member 2 (Rattus norvegicus) (protein)
chain: MDKFCNSTFWDLSLLESPEADLPLCFEQTVLVWIPLGFLWLLAPWQLYSVYRSRTKRSSITKFYLAKQVFVVFLLILAAIDLSLALTEDTGQATVPPVRYTNPILYLCTWLLVLAVQHSRQWCVRKNSWFLSLFWILSVLCGVFQFQTLIRALLKDSKSNMAYSYLFFVSYGFQIVLLILTAFSGPSDSTQTPSVTASFLSSITFSWYDRTVLKGYKHPLTLEDVWDIDEGFKTRSVTSKFEAAMTKDLQKARQAFQRRLQKSQRKPEATLHGLNKKQSQSQDVLVLEEAKKKSEKTTKDYPKSWLIKSLFKTFHVVILKSFILKLIHDLLVFLNPQLLKLLIGFVKSSNSYVWFGYICAILMFAVTLIQSFCLQSYFQHCFVLGMCVRTTVMSSIYKKALTLSNLARKQYTIGETVNLMSVDSQKLMDATNYMQLVWSSVIQITLSIFFLWRELGPSILAGVGVMVLLIPVNGVLATKIRNIQVQNMKNKDKRLKIMNEILSGIKILKYFAWEPSFQEQVQGIRKKELKNLLRFGQLQSLLIFILQITPILVSVVTFSVYVLVDSANVLNAEKAFTSITLFNILRFPLSMLPMVTSSILQASVSVDRLERYLGGDDLDTSAIRRVSNFDKAVKFSEASFTWDPDLEATIQDVNLDIKPGQLVAVVGTVGSGKSSLVSAMLGEMENVHGHITIQGSTAYVPQQSWIQNGTIKDNILFGSEYNEKKYQQVLKACALLPDLEILPGGDMAEIGEKGINLSGGQKQRVSLARAAYQDADIYILDDPLSAVDAHVGKHIFNKVVGPNGLLAGKTRIFVTHGIHFLPQVDEIVVLGKGTILEKGSYRDLLDKKGVFARNWKTFMKHSGPEGEATVNNDSEAEDDDDGLIPTMEEIPEDAASLAMRRENSLRRTLSRSSRSSSRRGKSLKNSLKIKNVNVLKEKEKEVEGQKLIKKEFVETGKVKFSIYLKYLQAVGWWSILFIILFYGLNNVAFIGSNLWLSAWTSDSDNLNGTNNSSSHRDMRIGVFGALGLAQGICLLISTLWSIYACRNASKALHGQLLTNILRAPMRFFDTTPTGRIVNRFSGDISTVDDLLPQTLRSWMMCFFGIAGTLVMICMATPVFAIIIIPLSILYISVQVFYVATSRQLRRLDSVTKSPIYSHFSETVTGLPIIRAFEHQQRFLAWNEKQIDINQKCVFSWITSNRWLAIRLELVGNLVVFCSALLLVIYRKTLTGDVVGFVLSNALNITQTLNWLVRMTSEAETNIVAVERISEYINVENEAPWVTDKRPPADWPRHGEIQFNNYQVRYRPELDLVLKGITCNIKSGEKVGVVGRTGAGKSSLTNCLFRILESAGGQIIIDGIDVASIGLHDLRERLTIIPQDPILFSGSLRMNLDPFNKYSDEEVWRALELAHLRSFVSGLQLGLLSEVTEGGDNLSIGQRQLLCLGRAVLRKSKILVLDEATAAVDLETDSLIQTTIRKEFSQCTVITIAHRLHTIMDSDKIMVLDNGKIVEYGSPEELLSNRGSFYLMAKEAGIENVNHTEL
Usually Km stands for the substrate concentration at which the rate is half of its maximum. Take B1: the Km in data set [3] worked out at 3.91 µM.

Values taken from ChEMBL document CHEMBL2073895, “Charged amino acids in the transmembrane domains are involved in the determination of the substrate specificity of rat Mrp2” (Mol Pharmacol, 2001).
